{"source": "patent US5663201A", "about": "“Desferrioxamine-B salts” (CIBA-GEIGY Corporation, priority 1992, dated 1997)", "key": {"[1]": {"format": "physicochemical", "conditions": "n-octanol/water, 5000 µM", "experimental": "(§1) The partition coefficients of the salts prepared in Examples 1 to 5 between n-octanol and water are determined by the `shake-flask` method of Leo et at, Chem. Rev., 71(6), 525 (1971).\nThe n-octanol and aqueous phases are mutually saturated prior to conducting the experiment. The desferrioxamine-B sulphonic acid addition salt is dissolved in the aqueous phase at a concentration of 0.005 mol/l and the partition experiment is performed by shaking the vessel containing the two phases until an equilibrium has been achieved. […] After equilibrium has been achieved, the sample is centrifuged to enable phase separation. Both organic and aqueous phases are analysed for desferrioxamine-B content via extraction of an appropriate aliquot, quenching with an aqueous (for assay of the aqueous phase) or methanolic (for assay of the n-octanol phase) solution of FeCl3, and measurement of the absorption of the characteristic ferrioxamine-B chelate at ca. 450 nm. Respective calibration plots (absorbance vs. concentration of desferrioxamine-B sulphonic acid salt) for the assay of both aqueous and organic phases show a linear response over the concentration range studied. The results obtained are as follows: […]"}, "[2]": {"format": "physicochemical", "conditions": "n-octanol/phosphate buffer, pH 7.4", "experimental": "as §1\nThe n-octanol and aqueous phases are mutually saturated prior to conducting the experiment. The desferrioxamine-B sulphonic acid addition salt is dissolved in the aqueous phase at a concentration of 0.005 mol/l and the partition experiment is performed by shaking the vessel containing the two phases until an equilibrium has been achieved. […] After equilibrium has been achieved, the sample is centrifuged to enable phase separation. Both organic and aqueous phases are analysed for desferrioxamine-B content via extraction of an appropriate aliquot, quenching with an aqueous (for assay of the aqueous phase) or methanolic (for assay of the n-octanol phase) solution of FeCl3, and measurement of the absorption of the characteristic ferrioxamine-B chelate at ca. 450 nm. Respective calibration plots (absorbance vs. concentration of desferrioxamine-B sulphonic acid salt) for the assay of both aqueous and organic phases show a linear response over the concentration range studied. The results obtained are as follows:\nThe partition coefficients of the salts prepared in Examples 1 to 5 between n-octanol and an aqueous phosphate buffer at pH7.4 having an ionic strength of 0.31 mol/l are determined using the procedure of Examples 6-10. The results obtained are as follows:\nThe use of n-octanol/aqueous media partition coefficients as a model for the lipophilicity of drugs is well established (see the abovementioned Leo et al reference). The aqueous phase in Examples 11 to 15 simulates physiological conditions."}, "[3]": {"assay": "intrinsic dissolution of tablets, Langenbucher flow-through apparatus", "format": "physicochemical", "conditions": "water, 25° C., listed as decanesulphonate", "experimental": "Tablets are prepared from the salts of Examples 1 and 4 by compressing a mixture of 99 parts of the salt and 1 part of magnesium stearate in a 13mm die for 2 minutes under a pressure of 4×10^5 kPa. The intrinsic dissolution rates of the tablets are determined using a Langenbucher flow-through apparatus, with water at 25° C. as the dissolution medium. The amount of desferrioxamine-B dissolved in the medium is measured at intervals using a spectrophotometric assay at 215 nm."}, "[4]": {"tested_on": "Daudi cell line (B-cell lymphoma)", "assay": "iron-chelation bioassay: growth inhibiting effect on cells through iron removal, [3H] Thymidine uptake", "format": "cell-based", "conditions": "72 hours, Control (0 μM): Ex 18 22297, Ex 19 23897, listed as decanesulphonate", "experimental": "The iron-chelating properties of salts of the invention in a biological system are determined by means of a bioassay in which the growth inhibiting effect of the salts on cells through iron removal is measured by the uptake of radioactively labelled thymidine into the cells. The bioassay is carried out using a Daudi cell line (B-cell lymphoma), a Roswell Park Memorial Institute (RPMI) 1640 medium containing 1 µM ferric citrate and supplements as low iron washing medium and RPM11640 together with 5% by weight of foetal calf serum as passaging medium.\nThe cells are fed 24 hours before use. They are washed twice in the low iron washing medium to remove any excess iron and diluted with this medium to a concentration of 0.2×10^6 cells/0.180 ml. To 0.180 ml aliquots are added 0.02 ml of solutions of the desferrioxamine-B salts under test in phosphate-buffered saline (PBS) to give concentrations ranging from a Control containing no salt to a […] solution. The cells are then incubated at 37° C. in an atmosphere containing 5% by volume of carbon dioxide for 72 hours, being pulsed for the last 8 hours of that time with labelled [^3 H] Thymidine at 5 micro Ci/ml. The resulting cells are harvested and their radioactive disintegrations are counted for 10 minutes. The results are shown in the table below as the average of 4 separate experiments (except the Control result in Example 18 which is the average of 3 separate experiments)."}}, "note": "Counter-ions that a name gives are not always drawn. Like-named read-outs stand apart in the source and are kept apart here.", "data": [{"compound": "CC(=O)N(O)CCCCCNC(=O)CCC(=O)N(O)CCCCCNC(=O)CCC(=O)N(O)CCCCCN", "note": "[Example 1, decane-1-sulphonate/salt of desferrioxamine-B]", "values": [{"measurement": "Partition Coefficient", "setting": "[1]", "result": 0.366}, {"measurement": "Partition Coefficient", "setting": "[2]", "result": 0.060}, {"measurement": "% Desferrioxaine-B salt dissolved", "setting": "[3]; 1 min", "result": 1.01, "unit": "%"}, {"measurement": "% Desferrioxaine-B salt dissolved", "setting": "[3]; 2 min", "result": 1.65, "unit": "%"}, {"measurement": "% Desferrioxaine-B salt dissolved", "setting": "[3]; 5 min", "result": 2.90, "unit": "%"}, {"measurement": "% Desferrioxaine-B salt dissolved", "setting": "[3]; 10 min", "result": 4.67, "unit": "%"}, {"measurement": "% Desferrioxaine-B salt dissolved", "setting": "[3]; 15 min", "result": 6.17, "unit": "%"}, {"measurement": "% Desferrioxaine-B salt dissolved", "setting": "[3]; 20 min", "result": 7.50, "unit": "%"}, {"measurement": "% Desferrioxaine-B salt dissolved", "setting": "[3]; 30 min", "result": 9.97, "unit": "%"}, {"measurement": "% Desferrioxaine-B salt dissolved", "setting": "[3]; 50 min", "result": 14.21, "unit": "%"}, {"measurement": "% Desferrioxaine-B salt dissolved", "setting": "[3]; 75 min", "result": 18.80, "unit": "%"}, {"measurement": "% Desferrioxaine-B salt dissolved", "setting": "[3]; 100 min", "result": 22.92, "unit": "%"}, {"measurement": "% Desferrioxaine-B salt dissolved", "setting": "[3]; 125 min", "result": 26.62, "unit": "%"}, {"measurement": "% Desferrioxaine-B salt dissolved", "setting": "[3]; 150 min", "result": 30.13, "unit": "%"}, {"measurement": "% Desferrioxaine-B salt dissolved", "setting": "[3]; 175 min", "result": 33.49, "unit": "%"}, {"measurement": "% Desferrioxaine-B salt dissolved", "setting": "[3]; 200 min", "result": 36.85, "unit": "%"}, {"measurement": "% Desferrioxaine-B salt dissolved", "setting": "[3]; 225 min", "result": 39.97, "unit": "%"}, {"measurement": "% Desferrioxaine-B salt dissolved", "setting": "[3]; 250 min", "result": 42.94, "unit": "%"}, {"measurement": "% Desferrioxaine-B salt dissolved", "setting": "[3]; 275 min", "result": 45.87, "unit": "%"}, {"measurement": "% Desferrioxaine-B salt dissolved", "setting": "[3]; 300 min", "result": 48.81, "unit": "%"}, {"measurement": "Disintegrations Per Minute ([3H] Thymidine uptake)", "setting": "[4]; 0.5 μM salt", "result": "23603 Disintegrations Per Minute"}, {"measurement": "Disintegrations Per Minute ([3H] Thymidine uptake)", "setting": "[4]; 1 μM salt", "result": "14161 Disintegrations Per Minute"}, {"measurement": "Disintegrations Per Minute ([3H] Thymidine uptake)", "setting": "[4]; 2 μM salt", "result": "6847 Disintegrations Per Minute"}, {"measurement": "Disintegrations Per Minute ([3H] Thymidine uptake)", "setting": "[4]; 3 μM salt", "result": "6599 Disintegrations Per Minute"}, {"measurement": "Disintegrations Per Minute ([3H] Thymidine uptake)", "setting": "[4]; 4 μM salt", "result": "5445 Disintegrations Per Minute"}, {"measurement": "Disintegrations Per Minute ([3H] Thymidine uptake)", "setting": "[4]; 5 μM salt", "result": "5139 Disintegrations Per Minute"}, {"measurement": "Disintegrations Per Minute ([3H] Thymidine uptake)", "setting": "[4]; 6 μM salt", "result": "4382 Disintegrations Per Minute"}, {"measurement": "Disintegrations Per Minute ([3H] Thymidine uptake)", "setting": "[4]; 7.5 μM salt", "result": "3262 Disintegrations Per Minute"}, {"measurement": "Disintegrations Per Minute ([3H] Thymidine uptake)", "setting": "[4]; 10 μM salt", "result": "2172 Disintegrations Per Minute"}, {"measurement": "Disintegrations Per Minute ([3H] Thymidine uptake)", "setting": "[4]; 15 μM salt", "result": "1101 Disintegrations Per Minute"}, {"measurement": "Disintegrations Per Minute ([3H] Thymidine uptake)", "setting": "[4]; 20 μM salt", "result": "494 Disintegrations Per Minute"}]}, {"compound": "CC(=O)N(O)CCCCCNC(=O)CCC(=O)N(O)CCCCCNC(=O)CCC(=O)N(O)CCCCCN", "note": "[Example 2, butane-1-sulphonate salt of desferrioxamine-B]", "values": [{"measurement": "Partition Coefficient", "setting": "[1]", "result": 0.008}, {"measurement": "Partition Coefficient", "setting": "[2]", "result": 0.006}]}, {"compound": "CC(=O)N(O)CCCCCNC(=O)CCC(=O)N(O)CCCCCNC(=O)CCC(=O)N(O)CCCCCN", "note": "[Example 3, hexane-1-sulphonate salt of desferrioxamine-B]", "values": [{"measurement": "Partition Coefficient", "setting": "[1]", "result": 0.020}, {"measurement": "Partition Coefficient", "setting": "[2]", "result": 0.010}]}, {"compound": "CC(=O)N(O)CCCCCNC(=O)CCC(=O)N(O)CCCCCNC(=O)CCC(=O)N(O)CCCCCN", "note": "[Example 5, dodecane-1-sulphonate salt of desferrioxamine-B]", "values": [{"measurement": "Partition Coefficient", "setting": "[1]", "result": 0.450}, {"measurement": "Partition Coefficient", "setting": "[2]", "result": 0.028}]}]}
